From patent US4103082A, “Aminocyclitol derivatives and process for producing the same” (priority 1975, dated 1978) come the findings set out here.

In the experiment the test system is Staphylococcus aureus 6538P. The experiment is described as follows: paper disk method, inhibitory zone diameter. It counts as cell-based. The note with it: read-out: inhibitory zone diameter; for zone of inhibition at 7.8 µg/mL: 7.8 γ/ml; for zone of inhibition at 15.6 µg/mL: 15.6 γ/ml; for zone of inhibition at 31.2 µg/mL: 31.2 γ/ml; for zone of inhibition at 62.5 µg/mL: 62.5 γ/ml; for zone of inhibition at 125 µg/mL: 125 γ/ml; for zone of inhibition at 250 µg/mL: 250 γ/ml; for zone of inhibition at 500 µg/mL: 500 γ/ml; for zone of inhibition at 1000 µg/mL: 1000 γ/ml; for zone of inhibition at 2000 µg/mL: 2000 γ/ml.

Consider `NC[C@H]1O[C@H](O[C@H]2C[C@@H](O)[C@H](N)C[C@@H]2N)[C@H](N)[C@@H](O)[C@@H]1O` [5-Deoxyneamine, 5-deoxyneamine], for which the zone of inhibition at 7.8 µg/mL turned out to be 0 mm, the zone of inhibition at 15.6 µg/mL was 0 mm, the zone of inhibition at 31.2 µg/mL amounted to 0 mm and the zone of inhibition at 62.5 µg/mL was 10.3 mm. In addition, the zone of inhibition at 125 µg/mL amounted to 12.4 mm, the zone of inhibition at 250 µg/mL turned out to be 15.3 mm, the zone of inhibition at 500 µg/mL is 18.5 mm and the zone of inhibition at 1000 µg/mL was 20.4 mm. The zone of inhibition at 2000 µg/mL worked out at 22.5 mm.

`NC[C@H]1O[C@H](O[C@H]2[C@H](O)C[C@H](N)C[C@@H]2N)[C@H](N)[C@@H](O)[C@@H]1O` [6-Deoxyneamine, 6-deoxyneamine]: the zone of inhibition at 7.8 µg/mL was found to be 0 mm, the zone of inhibition at 15.6 µg/mL stood at 0 mm, the zone of inhibition at 31.2 µg/mL turned out to be 10 mm and the zone of inhibition at 62.5 µg/mL came to 12 mm. Moreover, the zone of inhibition at 125 µg/mL turned out to be 15.7 mm, the zone of inhibition at 250 µg/mL amounted to 18.1 mm, the zone of inhibition at 500 µg/mL was determined as 20 mm and the zone of inhibition at 1000 µg/mL is 22.2 mm. Also, the zone of inhibition at 2000 µg/mL was determined as 24.2 mm.
